Reference: PMC6651548, “Synthesis and AChE Inhibitory Activity of Novel Thiazolylhydrazone Derivatives” (Molecules, 2019)

What was measured:
hMAO-A = target: T1, hMAO-A (Homo sapiens, UniProt P21397); assay: Monoamine oxidase fluorometric inhibition assay, MAO-A; assay type: biochemical
T1 construct: purchased Sigma-Aldrich (Steinheim, Germany)
T1 sequence (P21397 1-527): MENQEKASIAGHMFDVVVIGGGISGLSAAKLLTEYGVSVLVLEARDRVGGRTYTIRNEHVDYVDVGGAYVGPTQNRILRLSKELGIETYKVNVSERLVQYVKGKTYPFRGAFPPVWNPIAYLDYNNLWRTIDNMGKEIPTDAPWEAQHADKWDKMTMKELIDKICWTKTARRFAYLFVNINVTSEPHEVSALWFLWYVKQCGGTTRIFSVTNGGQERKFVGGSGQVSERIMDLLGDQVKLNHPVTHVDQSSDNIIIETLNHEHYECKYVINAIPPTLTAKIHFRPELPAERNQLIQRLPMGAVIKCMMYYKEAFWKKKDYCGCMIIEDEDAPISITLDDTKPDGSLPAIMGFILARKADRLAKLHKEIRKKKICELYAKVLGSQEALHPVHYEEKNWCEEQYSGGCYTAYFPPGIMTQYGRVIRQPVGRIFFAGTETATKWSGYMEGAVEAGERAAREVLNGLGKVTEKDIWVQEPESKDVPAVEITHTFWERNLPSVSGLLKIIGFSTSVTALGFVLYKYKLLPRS
Experimental: In order to investigate the monoamine oxidase enzyme inhibitory effects of synthesized compounds, MAO-A and MAO-B enzyme activities were performed by using a fluorometric inhibition method. Moclobemide and selegiline were used as standard drugs for MAO-A and MAO-B enzymes, respectively. Test compounds and standard drugs were used in the same concentrations as in AChE and BChE enzyme activity assays. In Table 2, MAO enzyme inhibitory results are given. […]. To investigate the MAO-A and MAO-B enzyme inhibition profiles of the synthesized compounds, the fluorometric enzyme inhibition assay was carried out, as previously defined by us. Ampliflu™ Red (10-Acetyl-3,7-dihydroxyphenoxazine) was used as a fluorescence reagent in this assay.

hMAO-B = target: T2, hMAO-B (Homo sapiens, UniProt P27338); assay: biochemical
T2 construct: purchased Sigma-Aldrich (Steinheim, Germany)
T2 sequence (P27338 1-520): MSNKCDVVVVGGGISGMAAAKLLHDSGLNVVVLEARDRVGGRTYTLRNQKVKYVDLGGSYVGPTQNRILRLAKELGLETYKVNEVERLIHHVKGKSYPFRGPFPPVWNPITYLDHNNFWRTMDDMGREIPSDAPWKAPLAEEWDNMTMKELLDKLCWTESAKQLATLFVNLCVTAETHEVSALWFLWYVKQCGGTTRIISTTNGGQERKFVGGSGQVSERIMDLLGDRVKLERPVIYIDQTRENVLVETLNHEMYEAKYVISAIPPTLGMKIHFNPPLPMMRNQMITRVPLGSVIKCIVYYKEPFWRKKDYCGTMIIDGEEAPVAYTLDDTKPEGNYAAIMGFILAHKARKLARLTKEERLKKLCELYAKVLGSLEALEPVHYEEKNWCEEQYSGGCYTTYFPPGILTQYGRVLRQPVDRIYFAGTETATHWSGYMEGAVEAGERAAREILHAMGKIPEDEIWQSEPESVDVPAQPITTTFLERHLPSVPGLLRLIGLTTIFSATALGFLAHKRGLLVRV
Experimental: Test compounds and standard drugs were used in the same concentrations as in AChE and BChE enzyme activity assays. […] To investigate the MAO-A and MAO-B enzyme inhibition profiles of the synthesized compounds, the fluorometric enzyme inhibition assay was carried out, as previously defined by us. Ampliflu™ Red (10-Acetyl-3,7-dihydroxyphenoxazine) was used as a fluorescence reagent in this assay.

BChE = BChE (Homo sapiens, UniProt P06276); assay: Anticholinesterase activity assay (modified Ellman method), BChE; assay type: biochemical
Experimental: . Initially, all the obtained compounds were tested at 10^−3 M and 10^−4 M concentrations and the ChE inhibitory results are outlined in Table 1. […]. Compounds 3a, 3c and 3i indicated more than 50% activity at the 10^−4 M concentration. […]. […] According to the results of activity tests, some general results can be listed as follows. The compounds 3a, 3c and 3i contain the non-substituted, methoxy and trifluoromethyl substituents on the phenyl ring, respectively. […]
The inhibitory capacity of the obtained compounds on AChE and BChE biological activities was assessed using a modified Ellman’s spectrometric method, as described in our previous studies. Donepezil were used as a reference drug. All pipetting procedures in the enzyme inhibition assay were carried out via a robotics system, Biotek Precision XS (Winooski, VT, USA). A BioTek-Synergy H1 microplate reader (Winooski, VT, USA) was used to carry out measurements of percent inhibition at 412 nm, and the IC50 values of the selected compounds were performed as previously described.

AChE [1] = target: T3, AChE (Homo sapiens, UniProt P22303); assay: biochemical
AChE [2] = target: T3, AChE; assay: Enzyme kinetic studies of AChE inhibition (Lineweaver-Burk plots); assay type: biochemical
Experimental: . The type of inhibition was estimated by means of linear Lineweaver-Burk […], and the substrate speed curves in the presence and absence of 3a, 3c and 3i of the strongest compounds were verified in the enzyme kinetics analysis. […] In the initial velocity measurements, different substrate concentrations, ranging from 600 µM to 18.75 µM, were used for the AChE enzyme. The secondary plots of the Km/Vmax (slope) versus changing concentrations were used to determine Ki (intercept on the x-axis) values of compounds [30]. […] Reversible inhibition comprises of the ensuing subtypes: competitive, uncompetitive, noncompetitive or mixed-type. Such inhibitions can be determined using Lineweaver–Burk plots. […] Based on the gained plot, a mixed type of inhibition by compound 3c was established. That is, the compound can bind to the enzyme–substrate complex or to the free enzyme. It also means that the compound is a reversible inhibitor; reversible compounds can be bound to the enzyme by non-covalent interactions such as ionic bonds, hydrophobic interactions and hydrogen bonds deprived of any chemical bonding or reaction with the enzyme. These interactions take place quickly and can be easily reversed. For that reason, the enzyme–inhibitor complex is rapidly degraded immediately before irreversible inhibition. […]

T3 sequence (P22303 32-614): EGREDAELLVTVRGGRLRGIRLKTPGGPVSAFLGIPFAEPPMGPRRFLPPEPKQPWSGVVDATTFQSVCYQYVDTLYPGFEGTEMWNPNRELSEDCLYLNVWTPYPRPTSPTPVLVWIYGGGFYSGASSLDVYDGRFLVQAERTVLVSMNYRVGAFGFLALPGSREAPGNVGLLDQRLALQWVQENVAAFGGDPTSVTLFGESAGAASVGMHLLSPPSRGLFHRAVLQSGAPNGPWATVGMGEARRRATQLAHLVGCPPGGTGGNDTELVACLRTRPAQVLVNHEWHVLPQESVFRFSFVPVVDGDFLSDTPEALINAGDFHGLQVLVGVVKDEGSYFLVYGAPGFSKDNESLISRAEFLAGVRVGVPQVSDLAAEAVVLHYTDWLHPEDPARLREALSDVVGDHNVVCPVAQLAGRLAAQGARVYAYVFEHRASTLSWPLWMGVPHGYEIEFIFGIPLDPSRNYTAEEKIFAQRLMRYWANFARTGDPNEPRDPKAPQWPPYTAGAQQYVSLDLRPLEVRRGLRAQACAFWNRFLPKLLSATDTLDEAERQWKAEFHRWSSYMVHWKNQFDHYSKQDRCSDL
BChE, sequence (P06276 29-602): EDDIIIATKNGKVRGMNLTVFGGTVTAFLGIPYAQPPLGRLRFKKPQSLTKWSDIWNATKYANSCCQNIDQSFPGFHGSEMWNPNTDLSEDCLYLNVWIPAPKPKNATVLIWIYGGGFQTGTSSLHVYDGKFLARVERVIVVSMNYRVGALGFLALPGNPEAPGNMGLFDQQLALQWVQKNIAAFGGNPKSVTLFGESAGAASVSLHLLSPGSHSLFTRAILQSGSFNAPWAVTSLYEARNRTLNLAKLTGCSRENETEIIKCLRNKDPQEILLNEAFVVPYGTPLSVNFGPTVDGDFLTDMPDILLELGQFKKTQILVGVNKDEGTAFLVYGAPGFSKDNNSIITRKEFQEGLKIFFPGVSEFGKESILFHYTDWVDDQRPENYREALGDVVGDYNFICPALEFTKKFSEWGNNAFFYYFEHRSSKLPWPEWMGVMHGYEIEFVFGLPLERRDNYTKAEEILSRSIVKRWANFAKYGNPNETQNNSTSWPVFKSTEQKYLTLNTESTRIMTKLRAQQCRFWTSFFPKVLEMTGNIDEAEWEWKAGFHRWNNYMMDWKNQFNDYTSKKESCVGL

`COc1ccc(-c2csc(NN=Cc3ccc(N4CCN(c5ccc(F)cc5)CC4)cc3)n2)cc1` [Compound 3c, 2-(2-(4-(4-(4-fluorophenyl)piperazin-1-yl)benzylidene)hydrazineyl)-4-(4-methoxyphenyl)thiazole] showed an inhibition at 1000 µM (hMAO-A; 10^−3 M) of 38.6 ± 0.58%, an inhibition at 100 µM (hMAO-A; 10^−4 M) of 21.8 ± 0.55% and an inhibition at 1000 µM (hMAO-B; 10^−3 M, read-out: MAO-B % Inhibition) of 85.1 ± 1%. The inhibition at 100 µM (hMAO-B; 10^−4 M, read-out: MAO-B % Inhibition) was 70.3 ± 0.85%, the IC50 (hMAO-B; read-out: MAO-B IC50) was 1020 ± 42 nM and the inhibition at 1000 µM (BChE; 10^−3 M) was 28 ± 0.43%. The inhibition at 100 µM (BChE; 10^−4 M) was 21.6 ± 0.65%, the inhibition at 1000 µM (AChE [1]; 10^−3 M) was 88.5 ± 1.1% and the IC50 (AChE [1]; 10^−3–10^−9 M concentrations) was 31.7 ± 1 nM. For the same compound, the type of inhibition (AChE [2]; Lineweaver–Burk plots, 2 × IC50, IC50 and IC50/2, substrate 600 µM to 18.75 µM) was “mixed type” and the Ki (AChE [2]; secondary plot of Km/Vmax (slope) versus inhibitor concentration, read-out: steady-state inhibition constant (Ki)) was 19.7 nM.
